Test results reported in patent US12707888B2, “Asymmetric donor-acceptor molecular dyes” (THE UNIVERSITY OF NORTH CAROLINA AT CHARLOTTE, priority 2019, dated 2026).

Experiments:
Format in all cases: physicochemical
[1] = Lippert-Mataga analysis of excited state dipole moments; conditions: semi-empirically calculated using the Lippert-Mataga equation
Method: The calculated HOMOs/LUMOs indicate that the strong solvatofluorochromism arises from an ICT mechanism, whereby the ground state has significant electron localization on the donor side of the molecule whereas the electron density shifts to the acceptor moiety in the excited state. To more directly quantify the strong ICT character of the TTz dyes, the excited-state dipole moments were calculated using the Lippert-Mataga equation (Eq 1):
[formula] where va and vf are the wavenumbers of the absorption and emission peaks in cm^−1, respectively; μ* and μ are the excited state and ground state dipoles, respectively; ϵ0 is the vacuum permittivity, h is Planck's constant, c is the speed of light, a is the Onsager cavity radius, Δf is the orientation polarizability, ϵ is the relative permittivity, and η is the refractive index. The dipoles were calculated using Spartan 2016 software, and the Onsager cavity radii were calculated using Gaussian '09 software.
FIGS. 9A and 9B show the Stokes shift of Bu2N-TTz-Py and Ph2N-TTz-COOH versus Δf, respectively. From the slopes of the Lippert-Mataga plots, the change between the dipole moments of the ground and excited states can be determined. Even though the Lippert-Mataga equation assumes no specific solvent-solute interactions (e.g. hydrogen bonding) and ignores solute polarizability, high degrees of linearity are apparent; and therefore, the estimations of the excited state dipoles are regarded as reliable. […] Perhaps owing to the minimal solvent interactions and rapid vibrational relaxation, the estimated changes in dipole moments (Δμ) are remarkably large (Table IV). […] Therefore, it is expected that these asymmetric TTzs dyes would be well suited to give high sensitivity in sensing applications whereby small changes in the polarity of the environment can lead to large differences in the wavelengths of fluorescence.

[2] = Temperature studies of emission in MeTHF (thermofluorochromism); conditions: for wavelength of emission: 10 μM in MeTHF
Method: In an extension of sensing the surrounding polarity, the dependence of the wavelength of emission as a function of temperature and pH were also explored. For these efforts, Bu2N-TTz-Py was chosen as a focal representative of the asymmetric TTzs for its solubility, amphiphilicity, high Stokes shifts, and otherwise similar photophysical characteristics. For the temperature studies, a 10 μM MeTHF solution of Bu2N-TTz-Py was prepared and the emission of the solution was monitored from −196-60° C. MeTHF was chosen for its wide liquid temperature window and ability to form a glass upon freezing; most other solvents crystallize upon solidification and inhibit fluorescence. The low temperature studies were achieved using various liquid N2 cooling baths (see Experimental). Due to the condensation of atmospheric moisture during low-temperature testing, only the normalized emission intensities are reported. […] At temperatures near the freezing point of MeTHF and below, however, the wavelength of emission rapidly blue-shifts from 559 to 544 to 503 nm at −131, −136, and −196° C., respectively.
(§1) 4-pyridine carboxaldehyde, 4-(dibutylamino)benzaldehyde, 4-(diphenylamino)benzaldehyde, terephthalaldehyde, dithiooxamide, and all solvents used for spectroscopic measurements were purchased from Sigma-Aldrich and used without further purification. ^1H and ^13CNMR measurements were obtained with either a JEOL 300 MHz NMR or a JEOL 500 MHz NMR. High resolution mass spectra were obtained using a Thermo Fisher Scientific MSQ Plus Single Quadrupole Mass Spectrometer. Solution-state UV-Vis spectra were collected on a Cary 300 UV-Vis spectrophotometer. Time-resolved measurements were taken on a Jobin Yvon-Spex Fluorolog equipped with a 389 nm diode laser for time-resolved PL decay measurements. Igor Pro 6.3 software was used to fit PL(t) decay data to single/multiple exponential decays. Quantum yields were calculated using 9,10-diphenylanthracene as a reference (quantum yield [ΦF] in cyclohexane=0.97).^40-41 Density functional theory (DFT) calculations were performed with Spartan computational software using B3LYP^42-43 density functional and 6-31G*^44 basis set. Temperature studies were conducted using a 10 μM Bu2N-TTz-Py MeTHF solution placed inside of a Norrell 502 NMR tube and sequentially submerged in the following liquid N2 baths:octanol (−16° C.), acetonitrile (−41° C.), acetone (−94° C.), pentane (−131° C.), MeTHF (−136° C.), and liquid N2 itself (−196° C.). The phosphorescence spectrum of Bu2N-TTz-Py (see S2) was collected similarly at −196° C. by pumping with 389 nm light while inside a liquid nitrogen bath and then probing the emission within 2 sec of removing from the bath. Human embryonic kidney cells (HEK 293T) were a kind gift from Prof. Bryan Dickinson, and Mouse macrophage J774A.1 cells were a kind gift from Prof. Deborah Nelson at the University of Chicago. Cells were cultured in Dulbecco's Modified Eagle's Medium (Invitrogen Corporation, USA) containing 10% heat inactivated Fetal Bovine Serum (FBS) (Invitrogen Corporation, USA), 100 U/mL penicillin, and 100 μg/mL streptomycin. Cells were maintained at 37° C. under 5% CO2.

[3] = UV-Vis absorbance, fluorescence emission and quantum yield in organic solvents
Method: The absorption, emission, and fluorescence lifetime characteristics of all four TTz dyes were recorded in a variety of organic solvents (FIGS. 7A-7B, Table of FIG. 8). Additionally, HOMO/LUMO levels of the TTz dyes were determined computationally in Spartan 16 using B3LYP/6-31g. Molar absorptivities of all the TTz dyes ranged from 13,000 to 86,000 cm^−1M^−1. […] However, the peak absorbance of Bu2N-TTz-Py in DCM was slightly red-shifted as compared to that of Ph2N-TTz-Py (λmax, abs=429 nm vs λmax, abs=422 nm in DCM), which is attributed to the diphenylamine moiety having weaker donor characteristics. […] Due to the low estimated ground state dipole moments of the TTz dyes (μ=6-8 D), their wavelengths of absorbance remained relatively solvent independent (st. dev.=±11 nm).
as §1

Change in Dipole Δμ [1]: 15.9 D
Excited State Dipole μ* [1]: 24.3 D
wavelength of emission ([2]; 60° C.): 519 nm
wavelength of emission ([2]; −131° C.): 559 nm
wavelength of emission ([2]; −136° C.): 544 nm
wavelength of emission ([2]; −196° C.): 503 nm
temperature sensitivity of emission wavelength ([2]; TTz/MeTHF solution, liquid range of MeTHF): −0.21 nm ° C.^−1
quantum yield ΦMeOH ([3]; MeOH, reference 9,10-diphenylanthracene): 0.04
QY in aqueous environments ([3]; aqueous environments): low QY
quantum yield Φhex ([3]; hex, reference 9,10-diphenylanthracene): 0.93
peak absorbance λmax, abs ([3]; in DCM): 429 nm
SMILES: CCCCN(CCCC)c1ccc(-c2nc3sc(-c4ccncc4)nc3s2)cc1 [Bu2N-TTz-Py, 2-(N,N-dibutyl-4-aminophenyl)-5-(4-pyridyl) thiazolo[5,4-d]thiazole]
